According to publication PMC7143076, “Anion Inhibition Studies of the β-Class Carbonic Anhydrase CAS3 from the Filamentous Ascomycete Sordaria macrospora” (Metabolites, 2020):
Read-outs that look alike come from different tables or passages of the source.

Target: T1, CAS3 (Sordaria macrospora, UniProt F7VU04)
T1 construct: gene SMAC_03179
Experiment: stopped-flow CO2 hydrase assay
Type: biochemical

[1] = read-out: CAS3 ^c, CO2 1.7-17 mM, pH 8.3, 10-20 mM TRIS, 10 mM NaClO4, 20 °C, 15 min preincubation, sodium salt
[2] = read-out: CAS3 ^c, CO2 1.7-17 mM, pH 8.3, 10-20 mM TRIS, 10 mM NaClO4, 20 °C, 15 min preincubation

T1 sequence (F7VU04 1-174 limits assumed): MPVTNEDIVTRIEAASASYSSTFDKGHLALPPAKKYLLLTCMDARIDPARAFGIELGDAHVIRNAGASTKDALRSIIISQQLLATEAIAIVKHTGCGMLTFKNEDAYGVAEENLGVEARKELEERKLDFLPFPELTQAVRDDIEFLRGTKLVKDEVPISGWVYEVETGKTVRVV

Compound	Ki [1]	Ki (read-out: CAS3 ^c)	further results
O=[N+]([O-])O [NO3^-]	8.5 mM	–	–
CCN(CC)C(=S)S [Et2NCS2^-]	0.89 mM	–	–
[N-]=[N+]=[N-] [N3^-]	–	7.2 mM	–
S=C(S)S [CS3^2-]	8.6 mM	–	–
OB(O)c1ccccc1 [Ph-B(OH)2]	–	–	Ki [2]: 0.097 mM
N#CO [CNO^-]	–	3.2 mM	–
S [HS^-]	–	8.3 mM	–
NS(=O)(=O)O [H2NSO3H]	0.095 mM	–	–
N#C[SeH] [SeCN^-]	–	7.1 mM	–
O=[Se](=O)(O)O [SeO4^2-]	–	3.4 mM	–
O=NO [NO2^-]	8.3 mM	–	–
O=C(O)O [HCO3^-]	3.4 mM	–	–
O=C(O)O [CO3^2-]	–	–	Ki (read-out: CAS2 ^b, CO2 1.7-17 mM, pH 8.3, 10-20 mM TRIS, 10 mM NaClO4, 20 °C, 15 min preincubation, sodium salt): 8 mM
NS(N)(=O)=O [H2NSO2NH2]	–	–	Ki [2]: 0.094 mM
O=[Te](=O)(O)O [TeO4^2-]	–	8.1 mM	–
N#CS [SCN^-]	7.3 mM	–	–
